Measured values reported in PMC10424187, “Structure-Guided Design and Synthesis of a Pyridazinone Series of Trypanosoma cruzi Proteasome Inhibitors” (Journal of Medicinal Chemistry, 2023).
Values joined by “and” are separate entries in the source; they are usually repeats but may differ in a detail not shown here. Equal entries are not always repeated.

Key:
Human 20S proteasome = Human 20S proteasome (Homo sapiens, UniProt P28074+P49721); assay: human proteasome assay (chymotrypsin-like activity, Suc-LLVY-Rho-110-DPro); conditions: for Emax: read-out: Hs Prot Max Response (%), individual replicate
Description: T. cruzi and human proteasome assays
(§1) The T. cruzi proteasome was partially purified as described in the above reference and Human
(§2) 20S proteasome was purchased from Boston Biochem (now R&D Systems, catalogue number
(§3) a Tecan Fluent to titrate over 11 points in Labcyte Echo-compatible Greiner Bio-One 384 well
(§4) polypropylene microplates. Subsequently, 100 nl of test compound titrations were transferred
(§5) to black Greiner Bio-One low volume 384 well microplates using a Labcyte Echo acoustic
(§6) 50 mM HEPES pH 7.5, 150 mM sodium chloride, 5% Glycerol, 1 mM dithiothreitol, 1 mM
(§7) CHAPS in deionised, filtered water (all chemicals purchased from Sigma Aldrich). Human 20S
(§8) These enzyme solutions were prepared immediately prior to assay initiation and stored at 4 °C
(§9) To monitor the Chymotrypsin-like activity of the T. cruzi and Human 20S proteasome proteins
(§10) a self-quenched, Rhodamine 110-labelled peptide with the sequence Suc-LLVY-Rho-110-
(§11) DPro was used (prepared by Cambridge Research Biochemicals. Suc is succinyl, while DPro
(§12) refers to ᴅ-proline). The peptide was initially prepared from solid as a 10 mM solution in 100%
(§13) DMSO and stored at -20 °C. Prior to use in the assay, an aliquot was thawed at room
(§14) to twofold Km. For use with the Human 20S proteasome, the Suc-LLVY-Rho-110-DPro
(§15) peptide was diluted in assay buffer to a concentration equivalent to twofold Km, which for this
(§16) enzyme was 2 μM. The peptide solutions were protected from light and stored at 4 °C before
(§17) A Multidrop Micro (Thermo Fisher), using a low volume dispense cassette, was used to add
(§18) the assay solutions to the test compounds in the low volume 384-well microplates. Prior to
(§19) addition of proteasome solution, 5 μl of assay buffer was added to one column (containing 100
(§20) nl, 100% DMSO) to act as no enzyme control to mimic full inhibition. Subsequently, 5 μl of
(§21) proteasome solution (either T. cruzi or Human 20S) was added to all wells on the test
(§22) microplate apart from the column containing 5 μl assay buffer. The microplate was then spun
(§23) using a suitable bench top centrifuge for 1 minute at 1000 rpm, before incubation at room
(§24) Following the initial incubation, 5 μl of substrate solution was then added to all wells on the
(§25) test microplate using a Multidrop Micro equipped with a discrete low volume dispense cassette.
(§26) The test microplates were then spun for 10 seconds at 1000 rpm before being rapidly moved to
(§27) a multi-mode microplate reader, capable of monitoring fluorescence intensity. The microplate
(§28) reader used for these studies was a Tecan M1000 Pro, equipped with quad monochromators.
(§29) 530 ± 5 nm. A series of fluorescence intensity measurements were taken every 30 seconds for
(§30) Subsequently, the fluorescence intensity measurements (relative fluorescence units, RFU) were
(§31) fit to a simple linear regression model (y = A + Bx, where y refers to the fluorescence intensity
(§32) and x refers to the time in seconds) to determine the initial rate of reaction. The initial rate for
(§33) every compound concentration tested was then fit a 4-parameter logistic model: y = (A + (B -
(§34) A)) / (1 + (x / C)D), where y refers to the assay response, x refers to the inhibitor concentration,
(§35) A and B are the range values (minimum and maximum, respectively), C is the IC50 value and
(§36) D is the slope. Potency values were then reported as pIC50, which is the negative log of the
(§37) IC50 (on a molar scale). Data analysis was automated and carried out using the ActivityBase

[1] = tested on: intracellular T. cruzi X10/7 A1 amastigotes
T. cruzi proteasome = T. cruzi proteasome (Trypanosoma cruzi, UniProt V5BU39+V5C017); assay: T. cruzi proteasome assay (chymotrypsin-like activity, Suc-LLVY-Rho-110-DPro); conditions: for Tc Prot Hill Slope / Tc Prot Max Response (%): individual replicate; for Emax: read-out: Tc Prot Max Response (%), individual replicate; for T. cruzi Prot pIC50: mean of at least three independent replicates
Sequence of T. cruzi proteasome (V5BU39 entry or part of it): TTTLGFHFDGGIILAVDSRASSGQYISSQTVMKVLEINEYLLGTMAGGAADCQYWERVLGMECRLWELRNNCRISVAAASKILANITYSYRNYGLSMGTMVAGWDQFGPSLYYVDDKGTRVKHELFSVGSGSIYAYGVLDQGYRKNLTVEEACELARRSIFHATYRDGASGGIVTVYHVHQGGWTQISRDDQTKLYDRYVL
Sequence of T. cruzi proteasome (V5C017 entry or part of it): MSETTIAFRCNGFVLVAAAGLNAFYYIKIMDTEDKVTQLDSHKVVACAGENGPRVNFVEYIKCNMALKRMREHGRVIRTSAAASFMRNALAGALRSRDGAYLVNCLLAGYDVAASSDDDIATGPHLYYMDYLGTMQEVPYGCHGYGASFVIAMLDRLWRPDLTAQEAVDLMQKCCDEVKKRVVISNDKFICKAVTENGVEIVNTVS
Description: T. cruzi and human proteasome assays
as §1, §2, §3, §4, §5, §6, §7, §8, §9, §10, §11, §12, §13, §14, §15, §16, §17, §18, §19, §20, §21, §22, §23, §24, §25, §26, §27, §28, §29, §30, §31, §32, §33, §34, §35, §36, §37

[2] = Mouse microsomal intrinsic clearance; assay type: in vitro ADME; conditions: mouse liver microsomes, scaling 52.5 mg microsomal protein/g liver
Description: Mouse microsomal intrinsic clearance.
This assay was conducted as previously described:
J.; Reid, I. H.; Hill, A. P.;
were prepared by adding a volume (5 µL) of the 10 mM solution to a volume (195 µL) of […]

ChromLogD = assay type: physicochemical; conditions: pH 7.4; read-out: Chrom LogDpH7.4
Description: Chrom LogD was measured as previously described:
solubility and hydrophobicity. Drug Discov. Today 2010, 15, 648−655. […]

[3] = Tc Prot pIC50, individual replicate
[4] = mean of at least three independent replicates
[5] = T. cruzi Prot pIC50, mean of at least three independent replicates

SMILES	Hs Prot Max Response (%) (Human 20S proteasome; individual replicate)	Emax [1]	IC50 (T. cruzi proteasome; [3])	Tc Prot Hill Slope (T. cruzi proteasome)	Tc Prot Max Response (%) (T. cruzi proteasome)	Emax (T. cruzi proteasome) [%]	Hs Prot pIC50 (Human 20S proteasome; individual replicate)	Hs Prot pIC50 (Human 20S proteasome; [4])	EC50 [1] [nM]	Emax (Human 20S proteasome) [%]	EC50 (host VERO cells)	Mouse CLi [2] [mL/min/g]	IC50 (T. cruzi proteasome; [5]) [nM]	chromatographic logD (ChromLogD)	T. cruzi Prot pIC50 (T. cruzi proteasome)	Emax (host VERO cells) [%]
COc1ccc(Cn2nc(C(=O)Nc3ccc(F)c(C(=O)NCCN4CCOCC4)c3)ccc2=O)cc1F [Compound 22, 1-[(3-Fluoro-4-methoxy-phenyl)methyl]-N-[4-fluoro-3-(2-morpholinoethylcarbamoyl)phenyl]-6-oxo-pyridazine-3-carboxamide]	7% and 14% and 2%	99% and 93% and 95% and 97% and 98% and 91% and 96%	15.8 nM	1.0 and 0.9	80% and 81%	72	–	–	–	–	–	–	–	–	–	–
COc1ccc(Cn2nc(C(=O)Nc3ccc(F)c(C(=O)NC4CC4)c3)ccc2=O)cc1F [Compound 15, N-[3-(Cyclopropylcarbamoyl)-4-fluorophenyl]-1-[(3-fluoro-4-methoxy-phenyl)methyl]-6-oxo-pyridazine-3-carboxamide]	17% and 16% and 19% and 12% and 6% and 8% and 5% and 1%	95% and 98% and 93% and 90% and 85% and 94% and 89% and 88%	–	–	–	–	< 4	<4	158	–	–	–	–	–	–	–
O=C(Nc1cccc(C(=O)NC2CC2)c1)c1ccc(=O)n(Cc2ccccc2)c1 [Compound 8, 1-Benzyl-N-(3-(cyclopropylcarbamoyl)phenyl)-6-oxo-1,6-dihydropyridine-3-carboxamide]	12% and 6%	–	2510 nM and 2000 nM and 794 nM	1.0 and 0.9	85% and 77%	80	< 4	<4	> 50100	10	> 50100 nM and 39800 nM and 25100 nM	0.8	1580	3.3	–	–
COc1cccc(Cn2nc(C(=O)Nc3ccc(F)c(C(=O)NC4CC4)c3)ccc2=O)c1 [Compound 13, N-(3-(Cyclopropylcarbamoyl)-4-fluorophenyl)-1-(3-methoxybenzyl)-6-oxo-1,6-dihydropyridazine-3-carboxamide]	7%	23%	> 100000 nM	–	2% and 10%	–	< 4	<4	> 50100	9	–	25	> 100000	5.5	complete loss of potency	–
COc1ccc(Cn2nc(C(=O)Nc3ccc(F)c(C(=O)N[C@H]4C[C@H](OC)C4)c3)ccc2=O)cc1 [Compound 19, N-(4-Fluoro-3-((trans-3-methoxycyclobutyl)carbamoyl)phenyl)-1-(4-methoxybenzyl)-6-oxo-1,6-dihydropyridazine-3-carboxamide]	14%	86% and 80% and 94% and 101% and 90% and 88%	31.6 nM	1.0 and 1.1 and 0.9	84% and 95%	78	< 4	<4	–	16	–	–	–	–	–	–
COc1ccc(Cn2nc(C(=O)Nc3ccc(F)c(C(=O)N[C@H](C)CO)c3)ccc2=O)cc1F [Compound 25, (R)-N-(4-Fluoro-3-((1-hydroxypropan-2-yl)carbamoyl)phenyl)-1-(3-fluoro-4-methoxybenzyl)-6-oxo-1,6-dihydropyridazine-3-carboxamide]	0.497% and 2.25% and 10% and 4.33% and 5% and 2.24% and 9%	92% and 96% and 91% and 89% and 95% and 99%	39.8 nM and 31.6 nM and 63.1 nM	1.1 and 0.95 and 0.9 and 1.0	80% and 82% and 79%	81	< 4	<4	398	–	–	–	50.1	–	–	–
CN(C(=O)c1ccc(=O)n(Cc2ccccc2)n1)c1cccc(C(=O)NC2CC2)c1 [Compound 6, 1-Benzyl-N-(3-(cyclopropylcarbamoyl)phenyl)-N-methyl-6-oxo-1,6-dihydropyridazine-3-carboxamide]	28% and 21% and 6%	–	> 100000 nM	–	–	30	< 4	<4	> 50100	–	–	11	> 100000	3.3	complete loss of activity	–
COc1ccc(Cn2nc(C(=O)Nc3ccc(F)c(C(=O)N[C@H]4C[C@@H](N5CCOCC5)C4)c3)ccc2=O)cc1F [Compound 24, N-(4-Fluoro-3-((cis-3-morpholinocyclobutyl)carbamoyl)phenyl)-1-(3-fluoro-4-methoxybenzyl)-6-oxo-1,6-dihydropyridazine-3-carboxamide]	6.38% and 29% and 23%	93% and 95% and 98% and 96%	6.31 nM	1.1	85% and 87%	82	< 4	<4	–	–	–	–	7.94	–	–	16
O=C(NC1CC1)c1cccc(NC(=O)c2ccc(=O)n(Cc3ccccc3)n2)c1 [Compound 5, 1-Benzyl-N-(3-(cyclopropylcarbamoyl)phenyl)-6-oxo-1,6-dihydropyridazine-3-carboxamide]	18% and 4% and 2% and 9% and 19% and 28% and 3% and 8% and 12% and 13% and 11% and 20% and 10% and 15%	73% and 75% and 70% and 81% and 55% and 80% and 83%	–	0.5 and 0.8 and 0.9 and 1.1 and 0.95 and 1.0 and 0.74 and 0.7 and 0.6	105% and 88% and 77% and 79% and 81% and 80% and 73% and 74% and 75% and 78%	–	< 4	<4	7940	–	–	–	631	–	–	–
CNC(=O)c1cc(NC(=O)c2ccc(=O)n(Cc3ccc(OC)c(F)c3)n2)ccc1F [Compound 27, 1-[(3-Fluoro-4-methoxy-phenyl)methyl]-N-[4-fluoro-3-(methylcarbamoyl)phenyl]-6-oxo-pyridazine-3-carboxamide]	3.52%	99% and 88% and 89% and 96% and 90% and 97% and 94%	3.98 nM and 10 nM and 7.94 nM	1.0 and 0.9	60% and 80% and 81%	–	< 4	<4	316	6	–	–	6.31	–	–	–
COc1ccc(Cn2nc(C(=O)Nc3ccc(F)c(C(=O)N[C@H]4C[C@H](N5CCOCC5)C4)c3)ccc2=O)cc1F [Compound 23, N-(4-Fluoro-3-((trans-3-morpholinocyclobutyl)carbamoyl)phenyl)-1-(3-fluoro-4-methoxybenzyl)-6-oxo-1,6-dihydropyridazine-3-carboxamide]	15% and 17%	96% and 93% and 98% and 95% and 97% and 94%	5.01 nM	1.2 and 1.1	86%	88	< 4	<4	–	13	–	–	7.94	–	–	–
COc1ccc(Cn2nc(C(=O)Nc3ccc(F)c(C(=O)N[C@H]4C[C@H](OC)C4)c3)ccc2=O)cc1F [Compound 20, N-(4-Fluoro-3-((trans-3-methoxycyclobutyl)carbamoyl)phenyl)-1-(3-fluoro-4-methoxybenzyl)-6-oxo-1,6-dihydropyridazine-3-carboxamide]	23%	100% and 94% and 92% and 97%	6.31 nM	0.9	63% and 86%	–	< 4	<4	–	20	–	–	6.31	–	–	–
